“Also recorded” adds a separate entry of the source.
Legend:
HEK293T cells [1] = experiment: Mitochondrial iron level by fluorescent indicator RPA; format: cell-based, human
Excerpt: (§1) Moreover, using siRNA knockdown (FIG. 13A), the present inventors observed that this Ent-mediated increase depended on ATP5A1 (FIG. 6E, F) in a similar manner as that in the assays for C. elegans (FIG. 5A, D). The present inventors also measured the mitochondrial iron level in cells by using the fluorescent mitochondrial iron indicator, RPA, to which iron binding quenches its fluorescence. […] The relatively smaller changes seen for cultured cells, compared to the difference in worms fed heat-killed food (FIG. 2), may potentially be due to the higher base iron level under the cell culturing condition.
Mitochondrial iron measurement in mammalian cells. The mitochondrial iron pools were determined as described (Mena et al., 2015). Briefly, cells were loaded for 20 min at 37 ° C. with 2 uM of the mitochondrial iron chelator rhodamine B-[(1,10-phenanthrolin-5-yl) aminocarbonyl]benzyl ester (RPA). After washing, the cells were imaged by fluorescence microscopy.

HEK293T cells [2] = experiment: In vivo mitochondrial iron uptake assay in HEK293T cells; format: cell-based, human
[3] = test system: mitochondria from HEK293T cells; experiment: In vitro mitochondrial iron uptake assay, mitochondria from HEK293T cells; format: biochemical, human
Excerpt: as §1
(§2) Mitochondrial iron uptake assays. For the in vitro mitochondrial iron uptake assay, the present inventors modified a published procedure for analysis of mammalian cells (Devireddy et al., 2010). […] The samples were incubated for 4 hours at room temperature, and the amount of 55Fe in lysed mitochondria was determined by liquid scintillation.

mitochondria = experiment: In vitro mitochondrial iron uptake assay, mitochondria purified from worms (55Fe); format: biochemical, C. elegans; conditions: purified mitochondria incubated with 55FeCl3 +/- Ent
Protocol: as §2

HEK293 cells = experiment: Cellular iron level by Calcein AM fluorescence in HEK293 cells +/- iron chelator DFO; format: cell-based, human
Protocol: Here, a similar test was done in human HEK293 cells. […] The present inventors then created a low-iron condition by adding an iron chelator, Deferoxamine (DFO) to the medium (FIG. 18A). […] The assay was also performed using mouse intestinal epithelial (MODE-K) cells.

MEL cells = experiment: Erythroid differentiation of MEL cells (color change of cell pellets); format: cell-based, murine; conditions: equimolar supplementation
Protocol: FIG. 27. Ferric Enterobactin supplementation benefits differentiation of erythroid progenitor cells (MEL) to red blood cells. (FIG. 27A) MEL cells were grown with the indicated treatments. Cell pellets are shown. (FIG. 27B) Quantification of MEL color change presented as the average intensity of each cell pellet, normalized to the intensity of the control. Error bars are the standard deviation of three technical replicates.
MEL cells are murine erythroid progenitor cells that are arrested at the proerythroblast stage. In the laboratory, these cells are induced to undergo erythroid differentiation to red blood cells by addition of various chemicals (e.g. 2% DMSO) (Friend, 1971). Erythroid differentiation is an iron-dependent process that results in a color change in the differentiated cells. The present inventors tested if addition of Fe-Ent would positively impact the differentiation of wild-type MEL cells to red blood cells.

mice = experiment: Growth of mice fed control (iron-adequate) diet, Ent in drinking water; format: in vivo; conditions: male mice, drinking water pH 5.5
Excerpt: The present inventors treated 4.5-week male mice with the iron-adequate control diet (CD) described above, the matched control for the iron-deficient diet (IDD). As shown above in FIGS. 20 and 21, mice fed this diet had relative normal hemoglobin and iron levels. […] This experiment was incomplete because the hemoglobin and iron levels were not measured, which will be repeated.

O=C(N[C@H]1COC(=O)[C@@H](NC(=O)c2cccc(O)c2O)COC(=O)[C@@H](NC(=O)c2cccc(O)c2O)COC1=O)c1cccc(O)c1O [Ent, enterobactin]
mitochondrial iron level (RPA) (HEK293T cells [1]): increased the mitochondrial iron level | iron-boosting effect of Ent (RPA) (HEK293T cells [1]; cells treated with ATP5A1 siRNA): not seen | iron level in mitochondria (HEK293T cells [2]): prominently increased | iron level in mitochondria [3]: prominently increased | increase in 55Fe level in mitochondria (mitochondria): 10 fold | decrease in Calcein AM fluorescence with Ent addition (HEK293 cells; medium with DFO, Ent 1.5 uM): 45% | iron level recovery (HEK293 cells; medium with DFO, Ent 1.5 uM): mostly recovered; also recorded: largely recovered | increase of cellular iron uptake (HEK293 cells; standard culture medium): ~33% | MEL differentiation to red blood cells (MEL cells): decrease in differentiation | growth rate (weight gain) (mice): increased growth rate

— patent publication US20210187014A1 (The Regents of the University of Colorado, a body corporate, priority 2018, published 2021)
